Assay results from patent EP3730489A1, “HETEROARYL COMPOUNDS AS AGROCHEMICAL FUNGICIDES” (BASF SE, priority 2019, dated 2020).

Assays:
Assay type in all cases: cell-based
Fusarium culmorum = test: Activity against Fusarium culmorum (Fusacu), microtiter plate test; conditions: relative growth vs active compound-free control (100%), measured at 405 nm 7 days after the inoculation; for activity at 31 ppm: Fusarium culmorum, 168 h
Protocol: (§1) The active compounds were formulated separately as a stock solution having a concentration of 10000 ppm in dimethyl sulfoxide.
4. Activity against Fusarium culmorum (Fusacu)
(§2) The stock solutions were mixed according to the ratio, pipetted onto a micro titer plate (MTP) and diluted with water to the stated concentrations. A spore suspension of Fusarium culmorum in an aqueous biomalt or yeast-bactopeptone-glycerine solution was then added. The plates were placed in a water vapor-saturated chamber at a temperature of 18°C. Using an absorption photometer, the MTPs were measured at 405 nm 7 days after the inoculation.
(§3) The measured parameters were compared to the growth of the active compound-free control variant (100%) and the fungus-free and active compound-free blank value to determine the relative growth in % of the pathogens in the respective active compounds.

Septoria tritici = test: Activity against leaf blotch on wheat caused by Septoria tritici (Septtr), microtiter plate test; conditions: relative growth vs active compound-free control (100%), measured at 405 nm 7 days after the inoculation
Protocol: as §1
3. Activity against leaf blotch on wheat caused by Septoria tritici (Septtr)
as §2, with “Septoria tritici” for “Fusarium culmorum”
as §3

Botrytis cinerea = test: Activity against the grey mold Botrytis cinerea in the microtiterplate test (Botrci); conditions: relative growth vs active compound-free control (100%), measured at 405 nm 7 days after the inoculation
Protocol: as §1
1. Activity against the grey mold Botrytis cinerea in the microtiterplate test (Botrci)
as §2, with “Botrci cinerea” for “Fusarium culmorum”, “yeast-bactopeptone-sodiumacetate” for “yeast-bactopeptone-glycerine”
as §3

Molecule | activity at 31 ppm (Fusarium culmorum) | growth (%) at 31ppm Septtr (Septoria tritici) | growth (%) at 31ppm Botrci (Botrytis cinerea) | growth (%) at 31ppm Fusacu (Fusarium culmorum)
Clc1ccsc1-c1c[nH]c2ccc(Br)cc12 [Example P1] | 1% | 8% | 0% | 
C#Cc1cnc2[nH]cc(-c3ocnc3C(F)(F)F)c2c1 [Example 6, 5-(5-ethynyl-1H-pyrrolo[2,3-b]pyridin-3-yl)-4-(trifluoromethyl)oxazole] | 1% | 12% | 5% | 
Fc1cnc2[nH]cc(-c3ocnc3C(F)(F)F)c2c1 [Example 8, 5-(5-fluoro-1H-pyrrolo[2,3-b]pyridin-3-yl)-4-(trifluoromethyl)oxazole] | 6% |  |  | 
N#Cc1ccc2[nH]cc(-c3ocnc3C(F)(F)F)c2c1 [Example 2, 3-[4-(trifluoromethyl)oxazol-5-yl]-1H-indole-5-carbonitrile] | 7% |  | 6% | 
C#Cc1cnc2[nH]cc(-c3ocnc3Br)c2c1 [Example P8] | 0% | 15% |  | 
C#Cc1cnc2[nH]cc(-c3ocnc3C(F)F)c2c1 [Example P10] | 6% |  |  | 
FC(F)(F)c1ncoc1-c1c[nH]c2ccc(Br)cc12 [Example P6] |  | 2% | 1% | 
N#Cc1ccc2[nH]cc(-c3sccc3Br)c2c1 [Example P4] | 17% |  |  | 
FC(F)Oc1ccc2[nH]cc(-c3sccc3C(F)(F)F)c2n1 [Example P5] | 0% | 4% | 1% | 
C#Cc1ccc2[nH]cc(-c3sccc3Cl)c2c1 [Example P2] | 1% | 12% | 1% | 
Fc1ncc2[nH]cc(-c3sccc3C(F)(F)F)c2n1 [Example P17] | 14% |  |  | 
3-[3-(trifluoromethyl)-2-thienyl]-1H-indole-5-carbonitrile [Example 1] |  | 14% |  | 0%
Fc1cnc2[nH]cc(-c3ocnc3I)c2c1 [Example 9, 5-(5-fluoro-1H-pyrrolo[2,3-b]pyridin-3-yl)-4-iodooxazole] | 11% |  |  | 
Brc1ccc2[nH]cc(-c3sccc3Br)c2c1 [Example P3] | 0% | 0% | 0% | 
